BindingDB's records for patent WO2022093820 (GENENTECH, INC., 2022)

Target: Phosphatidylinositol 3-kinase catalytic subunit type 3 (Homo sapiens, UniProt Q8NEB9)
Test: VPS34 ADP-Glo kinase assay
Procedure: Experimental compound in DMSO was dispensed to a 384-well microplate via acoustic dispenser at 50 nl per well. […] Assay buffer conditions were as follows: 50 mM HEPES, pH 7.5, 3 mM MnCl2, 0.01% BSA, 0.01% Brij 35, 1 mM TCEP. The 5 µl reaction was incubated for 90 minutes at room temperature, and then quenched with equal volume of ADP-Glo Reagent (5 µl; Promega). Quenched reaction was incubated for 60 min, followed by addition of an equal volume of Kinase Detection Reagent (10 µl; Promega). Luminescence signal was detected on an Envision (Perkin Elmer).

Sequence of Phosphatidylinositol 3-kinase catalytic subunit type 3 (Q8NEB9 whole entry): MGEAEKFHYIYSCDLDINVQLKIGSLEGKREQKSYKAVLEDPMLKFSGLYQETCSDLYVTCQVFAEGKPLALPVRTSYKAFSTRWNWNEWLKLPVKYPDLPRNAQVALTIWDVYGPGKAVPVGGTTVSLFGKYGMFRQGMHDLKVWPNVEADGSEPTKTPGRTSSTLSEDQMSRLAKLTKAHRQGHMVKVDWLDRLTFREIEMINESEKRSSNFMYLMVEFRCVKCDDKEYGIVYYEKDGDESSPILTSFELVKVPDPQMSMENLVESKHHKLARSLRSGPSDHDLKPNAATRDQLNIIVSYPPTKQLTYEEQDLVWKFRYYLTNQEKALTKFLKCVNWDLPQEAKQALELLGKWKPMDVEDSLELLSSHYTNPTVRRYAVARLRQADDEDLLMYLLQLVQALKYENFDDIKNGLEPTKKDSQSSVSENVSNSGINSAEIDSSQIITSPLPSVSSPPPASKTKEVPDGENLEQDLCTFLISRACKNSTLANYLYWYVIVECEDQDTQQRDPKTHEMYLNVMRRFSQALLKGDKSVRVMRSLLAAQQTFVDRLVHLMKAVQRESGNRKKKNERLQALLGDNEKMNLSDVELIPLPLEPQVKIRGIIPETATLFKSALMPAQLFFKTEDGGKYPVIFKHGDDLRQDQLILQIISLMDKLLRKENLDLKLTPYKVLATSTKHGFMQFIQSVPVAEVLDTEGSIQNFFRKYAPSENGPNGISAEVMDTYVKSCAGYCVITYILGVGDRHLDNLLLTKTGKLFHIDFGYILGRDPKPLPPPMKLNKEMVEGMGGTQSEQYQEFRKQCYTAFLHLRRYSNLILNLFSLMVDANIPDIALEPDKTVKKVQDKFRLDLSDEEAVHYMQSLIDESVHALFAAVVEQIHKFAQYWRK

SMILES	IC50
C[C@@H]1COCCN1c1cc2n(n1)[C@](C)(C1CCC1)CNC2=O [WO2022093820, Compound 44]	4000 nM
CC(C)[C@H]1n2nc(N3CCOC[C@H]3C)cc2C(=O)NC12CC2 [WO2022093820, Compound 33]	24 nM
C[C@@H]1COCCN1c1cc2n(n1)[C@@H](C1(C)CC1)CNC2=O [WO2022093820, Compound 12]	3350 nM
CC[C@]1(C2CC2)CNC(=O)c2cc(N3CCOC[C@H]3C)nn21 [WO2022093820, Compound 28]	1300 nM
C[C@@H]1COCCN1c1cc2n(n1)[C@H]([C@@H](C)c1ccccc1)CNC2=O [WO2022093820, Compound 58]	388 nM
C[C@H](CO)C1CNC(=O)c2cc(N3CCOC[C@H]3C)nn21 (stereo partly specified) [WO2022093820, Compound 70]	532 nM
C[C@@H]1COCCN1c1cc2n(n1)[C@H](C1(c3ccccc3)CC1)CNC2=O [WO2022093820, Compound 48]	100 nM
C[C@H](c1ccccc1)[C@@H]1CNC(=O)c2cc(N3CCOC[C@H]3C)nn21 [WO2022093820, Compound 57]	50000 nM
CC(C)C[C@@H]1CNC(=O)c2cc(N3CCOC[C@H]3C)nn21 [WO2022093820, Compound 61]	12800 nM
C[C@@H]1COCCN1c1cc2n(n1)[C@@](C)(C1CCC1)CNC2=O [WO2022093820, Compound 45]	260 nM
C[C@@H]1COCCN1c1cc2n(n1)[C@@H](C1(c3ccccc3)CC1)CNC2=O [WO2022093820, Compound 49]	35000 nM
C[C@@H]1COCCN1c1cc2n(n1)C([C@@H](C)c1ccccc1)CNC2=O (stereo partly specified) [WO2022093820, Compound 56]	119 nM
CC(C)[C@@H]1n2nc(N3CCOC[C@H]3C)cc2C(=O)NC12CC2 [WO2022093820, Compound 34]	21000 nM
CC[C@@]1(C2CC2)CNC(=O)c2cc(N3CCOC[C@H]3C)nn21 [WO2022093820, Compound 27]	32 nM
C[C@H](c1ccccc1)C1CNC(=O)c2cc(N3CCOC[C@H]3C)nn21 (stereo partly specified) [WO2022093820, Compound 55]	50000 nM
CC(C)[C@@]1(C)CNC(=O)c2cc(N3CCOC[C@H]3C)nn21 [WO2022093820, Compound 26]	2170 nM
C[C@@H]1COCCN1c1cc2n(n1)C(C)(C)CNC2=O [WO2022093820, Compound 71]	919 nM
CC[C@@H]1CNC(=O)c2cc(N3CCOC[C@H]3C)nn21 [WO2022093820, Compound 46]	12800 nM
CC[C@H]1CNC(=O)c2cc(N3CCOC[C@H]3C)nn21 [WO2022093820, Compound 47]	747 nM
CC(C)[C@]1(C)CNC(=O)c2cc(N3CCOC[C@H]3C)nn21 [WO2022093820, Compound 25]	90 nM
C[C@H](CO)[C@@H]1CNC(=O)c2cc(N3CCOC[C@H]3C)nn21 [WO2022093820, Compound 67]	32400 nM

SMILES	IC50
CC(C)C[C@H]1CNC(=O)c2cc(N3CCOC[C@H]3C)nn21 [WO2022093820, Compound 62]	739 nM
C[C@@H]1COCCN1c1cc2n(n1)[C@H](C1(C)CC1)CNC2=O [WO2022093820, Compound 11]	56 nM
C[C@@H]1COCCN1c1cc2n(n1)[C@@H](C(F)(F)C(F)(F)F)CNC2=O [WO2022093820, Compound 16]	50000 nM
C[C@@H]1COCCN1c1cc2n(n1)[C@H](CC(F)(F)F)CNC2=O [WO2022093820, Compound 59]	36000 nM
CC[C@H](C)C[C@@H]1CNC(=O)c2cc(N3CCOC[C@H]3C)nn21 [WO2022093820, Compound 65]	109 nM
C[C@@H]1COCCN1c1cc2n(n1)[C@@H]1CCC(C)(C)[C@@H]1NC2=O [WO2022093820, Compound 41]	51 nM
CC[C@@H](C)C[C@H]1CNC(=O)c2cc(N3CCOC[C@H]3C)nn21 [WO2022093820, Compound 64]	33600 nM
C[C@@H]1COCCN1c1cc2n(n1)[C@](C)(C1CC1)CNC2=O [WO2022093820, Compound 23]	41 nM
C[C@@H]1COCCN1c1cc2n(n1)[C@@](C)(C1CC1)CNC2=O [WO2022093820, Compound 24]	1340 nM
C[C@@H]1COCCN1c1cc2n(n1)[C@H](C(F)(F)C(F)(F)F)CNC2=O [WO2022093820, Compound 15]	52 nM
COC[C@]1(C(C)C)CNC(=O)c2cc(N3CCOC[C@H]3C)nn21 [WO2022093820, Compound 54]	563 nM
CC(C)C1(CO)CNC(=O)c2cc(N3CCOC[C@H]3C)nn21 (stereo partly specified) [WO2022093820, Compound 50]	847 nM
C[C@@H]1COCCN1c1cc2n(n1)C([C@@H](C)CO)CNC2=O (stereo partly specified) [WO2022093820, Compound 69]	784 nM
C[C@@H]1COCCN1c1cc2n(n1)[C@@](C)(C1CC1)C1(CC1)NC2=O [WO2022093820, Compound 30]	1750 nM
C[C@@H]1COCCN1c1cc2n(n1)[C@](C)(C1CC1)C1(CC1)NC2=O [WO2022093820, Compound 29]	27 nM
C[C@@H]1COCCN1c1cc2n(n1)[C@@H](CC(F)(F)F)CNC2=O [WO2022093820, Compound 60]	429 nM
C[C@@H]1COCCN1c1cc2n(n1)C[C@@H](CC(F)(F)F)NC2=O [WO2022093820, Compound 52]	24700 nM
C[C@@H]1COCCN1c1cc2n(n1)C[C@H](CC(F)(F)F)NC2=O [WO2022093820, Compound 51]	682 nM
COC[C@@]1(C(C)C)CNC(=O)c2cc(N3CCOC[C@H]3C)nn21 [WO2022093820, Compound 53]	36200 nM
C[C@@H]1COCCN1c1cc2n(n1)[C@H]([C@@H](C)CO)CNC2=O [WO2022093820, Compound 68]	27300 nM
